Source: patent publication US8633186B2, “Modulation of chemosensory receptors and ligands associated therewith” (Senomyx Inc., priority 2007, dated 2014)

Columns and labels:
[1] = system: human panelists (perceived sweetness intensity); test: Sweet flavor and sweet flavor enhancement, human panelists, scaling test; format: in vivo; design: key: 0-15 line scale; 0 = no sweetness, 15 = 15% sucrose sweetness
Excerpt: Test samples containing experimental compounds were compared to a dose-response curve for perceived sweetness intensity of sweeteners (such as, for example, sucralose, sucrose, fructose and other sweeteners) concentrations to determine equivalent sweetness intensity.
A group of eight or more panelists tasted solutions including sweeteners at various concentrations, as well as the experimental compound both with and without added sweetener. Panelists then rated sweetness intensity of all samples on a structured horizontal line scale, anchored from 0 to 15, where 0 equals no sweetness and 15 equals equivalent sweetness to a 15% sucrose sample. Scores for sweetness intensity were averaged across panelists. Then using the average scores and/or equation of the line for the sweetener dose-response curve, equivalent sweetness concentrations were determined for the samples containing experimental compounds.
Subjects had been previously familiarized with the key attribute taste and were trained to use the 0 to 15 point line scale. Subjects refrained from eating or drinking (except water) for at least 1 hour prior to the test. Subjects ate a cracker and rinsed with water several times to clean the mouth.
Sweetener solutions are provided at a wide range of concentrations such as 100 ppm, 200 ppm, 300 ppm, 400 ppm, and 500 ppm for sucralose, or between 0% and 12% for sucrose or fructose, in order to create a dose-response curve. Samples containing experimental compound were prepared both alone and in a 100 ppm sucralose solution or a 6% sucrose or fructose solution. All samples were made up in low sodium buffer pH 7.1. In order to aid dispersion, solutions can be made up in 0.1% ethanol.
The solutions were dispensed in 20 ml volumes into 1 oz. sample cups and served to the subjects at room temperature. All samples were presented in randomized counterbalanced order to reduce response bias. Further, two sessions of testing may be used to check panel precision.
Subjects tasted each sample individually and rate sweetness intensity on the line scale prior to tasting the next sample. All samples were expectorated. Subjects may retaste the samples but can only use the volume of sample given. Subjects must rinse with water between samples. Eating an unsalted cracker between samples may be required depending on the samples tasted.
The scores for each sample were averaged across subjects and standard error was calculated. The dose-response curve was plotted graphically, and this may be used to ensure the panel is rating accurately; i.e., increasing the concentration of sucralose should correspond to increased average scores for sweetness. A 2-way ANOVA (factors being samples and panelists) and multiple comparison tests (such as Tukey's Honestly Significant Difference test) can be used to determine differences among samples and/or panelists. A 3-way ANOVA, with sessions as the third factor, can be used to determine if there is any difference in the ratings between sessions.

Which melting point does the source give for NC1=NS(=O)(=O)Nc2cccc(OCC3CC3)c21 [Example 186, (S)-4-Amino-5-(cyclopropylmethoxy)-1H-benzo[c][1,2,6]thiadiazine-2,2-dioxide] here?
The melting point was 246 to 247 °C.

What does the source list for OC[C@H]1O[C@H](O[C@]2(CCl)O[C@H](CCl)[C@@H](O)[C@@H]2O)[C@H](O)[C@@H](O)[C@H]1Cl [Sucralose, sucralose]?
Average sweetness score (line scale 0 to 15) ([1]; Table 1, 100 ppm sucralose alone): 6.3; Average sweetness score (line scale 0 to 15) ([1]; Table 1, 200 ppm sucralose alone): 10.4; Average sweetness score (line scale 0 to 15) ([1]; Table 1, 300 ppm sucralose alone): 11.5; Average sweetness score (line scale 0 to 15) ([1]; Table 1, 400 ppm sucralose alone): 12.3; Average sweetness score (line scale 0 to 15) ([1]; Table 3, 100 ppm sucralose alone): 7.4; Average sweetness score (line scale 0 to 15) ([1]; Table 3, 200 ppm sucralose alone): 10.4; Average sweetness score (line scale 0 to 15) ([1]; Table 3, 300 ppm sucralose alone): 10.5; Average sweetness score (line scale 0 to 15) ([1]; Table 3, 400 ppm sucralose alone): 11.2; Average sweetness score (line scale 0 to 15) ([1]; Table 3, 600 ppm sucralose alone): 13.0; Average sweetness score (line scale 0 to 15) ([1]; Table 4, 100 ppm sucralose alone): 6.3; Average sweetness score (line scale 0 to 15) ([1]; Table 4, 200 ppm sucralose alone): 9.5; Average sweetness score (line scale 0 to 15) ([1]; Table 4, 300 ppm sucralose alone): 10.3; Average sweetness score (line scale 0 to 15) ([1]; Table 4, 400 ppm sucralose alone): 12.1; Average sweetness score (line scale 0 to 15) ([1]; Table 6, 100 ppm sucralose alone): 6.5; Average sweetness score (line scale 0 to 15) ([1]; Table 6, 200 ppm sucralose alone): 9.1; Average sweetness score (line scale 0 to 15) ([1]; Table 6, 300 ppm sucralose alone): 10.8; Average sweetness score (line scale 0 to 15) ([1]; Table 6, 400 ppm sucralose alone): 11.2; Average sweetness score (line scale 0 to 15) ([1]; Table 17, 100 ppm sucralose alone): 6.5; Average sweetness score (line scale 0 to 15) ([1]; Table 17, 200 ppm sucralose alone): 9.0; Average sweetness score (line scale 0 to 15) ([1]; Table 17, 300 ppm sucralose alone): 10.9; Average sweetness score (line scale 0 to 15) ([1]; Table 17, 400 ppm sucralose alone): 12.3; Average Sweetness ([1]; Table 28, 50 ppm sucralose alone, n = 28): 4.3; Average Sweetness ([1]; Table 28, 100 ppm sucralose alone, n = 28): 6.2; Average Sweetness ([1]; Table 28, 150 ppm sucralose alone, n = 28): 8.2; Average Sweetness ([1]; Table 28, 200 ppm sucralose alone, n = 28): 8.9; Average Sweetness ([1]; Table 28, 300 ppm sucralose alone, n = 28): 10.3

With COC(=O)c1c(N)c2ccccc2[nH]c1=O [Example 68, Methyl 4-amino-2-oxo-1,2-dihydroquinoline-3-carboxylate] as the molecule, how does the melting point read?
The melting point was 236 °C.

With NC1=NS(=O)(=O)Nc2cccc(OC3CCCC3)c21 [Example 169, 4-Amino-5-(cyclopentoxy)-1H-benzo[c][1,2,6]thiadiazine-2,2-dioxide] as the molecule, how does the melting point read?
Its melting point is greater than 260 °C.

Which melting point does the source give for Nc1cc(=O)[nH]c2ccccc12 [Example 65, 4-Aminoquinolin-2(1H)-one] here?
Its melting point is greater than 250 °C.

For Nc1c(C(=O)O)c(=O)[nH]c2ccccc12 [Example 66, 4-Amino-2-oxo-1,2-dihydroquinoline-3-carboxylic acid], which melting point is on record?
The melting point was greater than 250 °C.

For CCCOc1cccc2c1C(N)=NS(=O)(=O)N2 [Example 111, 4-Amino-5-(propyloxy)-1H-benzo[c][1,2,6]thiadiazine-2,2-dioxide], which melting point is on record?
Its melting point is 229 to 230 °C.

Which “Average sweetness score (line scale 0 to 15)” value ([1]; Table 2, 100 μM compound alone in low sodium buffer) does the source give for CCc1sc2[nH]c(=O)nc(N)c2c1C [Example 7, 4-Amino-6-ethyl-5-methylthieno[2,3-d]pyrimidin-2(1H)-one] here?
The value was 0.1.

What does the source list for OC[C@H]1O[C@@](CO)(O[C@H]2O[C@H](CO)[C@@H](O)[C@H](O)[C@H]2O)[C@@H](O)[C@@H]1O [Sucrose, sucrose]?
Average sweetness score (line scale 0 to 15) ([1]; Table 5, 2% sucrose alone): 2.4; Average sweetness score (line scale 0 to 15) ([1]; Table 7, 2% sucrose alone): 1.8; Average sweetness score (line scale 0 to 15) ([1]; Table 8, 6% sucrose alone): 6.6; Average sweetness score (line scale 0 to 15) ([1]; Table 8, 8% sucrose alone): 8.1; Average sweetness score (line scale 0 to 15) ([1]; Table 8, 9% sucrose alone): 8.6; Average sweetness score (line scale 0 to 15) ([1]; Table 8, 10% sucrose alone): 9.6; Average sweetness score (line scale 0 to 15) ([1]; Table 9, 2% sucrose alone): 2.2; Average sweetness score (line scale 0 to 15) ([1]; Table 9, 4% sucrose alone): 4.0; Average sweetness score (line scale 0 to 15) ([1]; Table 9, 6% sucrose alone): 5.5; Average sweetness score (line scale 0 to 15) ([1]; Table 10, 6% sucrose alone): 7.3; Average sweetness score (line scale 0 to 15) ([1]; Table 10, 8% sucrose alone): 7.9; Average sweetness score (line scale 0 to 15) ([1]; Table 10, 9% sucrose alone): 8.6; Average sweetness score (line scale 0 to 15) ([1]; Table 10, 10% sucrose alone): 9.6; Average sweetness score (line scale 0 to 15) ([1]; Table 11, 2% sucrose alone): 2.1; Average sweetness score (line scale 0 to 15) ([1]; Table 11, 4% sucrose alone): 3.9; Average sweetness score (line scale 0 to 15) ([1]; Table 11, 6% sucrose alone): 5.7; Average sweetness score (line scale 0 to 15) ([1]; Table 12, 6% sucrose alone): 6.8; Average sweetness score (line scale 0 to 15) ([1]; Table 12, 8% sucrose alone): 8.3; Average sweetness score (line scale 0 to 15) ([1]; Table 12, 9% sucrose alone): 8.6; Average sweetness score (line scale 0 to 15) ([1]; Table 12, 10% sucrose alone): 9.5; Average sweetness score (line scale 0 to 15) ([1]; Table 13, 2% sucrose alone): 1.9; Average sweetness score (line scale 0 to 15) ([1]; Table 13, 4% sucrose alone): 3.9; Average sweetness score (line scale 0 to 15) ([1]; Table 13, 6% sucrose alone): 5.5; Average sweetness score (line scale 0 to 15) ([1]; Table 14, 6% sucrose alone): 6.5; Average sweetness score (line scale 0 to 15) ([1]; Table 14, 8% sucrose alone): 8.5; Average sweetness score (line scale 0 to 15) ([1]; Table 14, 9% sucrose alone): 8.7; Average sweetness score (line scale 0 to 15) ([1]; Table 14, 10% sucrose alone): 9.7; Average sweetness score (line scale 0 to 15) ([1]; Table 15, 6% sucrose alone): 7.0; Average sweetness score (line scale 0 to 15) ([1]; Table 15, 8% sucrose alone): 8.4; Average sweetness score (line scale 0 to 15) ([1]; Table 15, 9% sucrose alone): 9.0; Average sweetness score (line scale 0 to 15) ([1]; Table 15, 10% sucrose alone): 9.1; Average sweetness score (line scale 0 to 15) ([1]; Table 16, 2% sucrose alone): 2.0; Average sweetness score (line scale 0 to 15) ([1]; Table 16, 4% sucrose alone): 4.1; Average sweetness score (line scale 0 to 15) ([1]; Table 16, 6% sucrose alone): 5.7; Average sweetness score (line scale 0 to 15) ([1]; Table 18, 2% sucrose alone): 2.4; Average sweetness score (line scale 0 to 15) ([1]; Table 18, 4% sucrose alone): 4.2; Average sweetness score (line scale 0 to 15) ([1]; Table 18, 6% sucrose alone): 5.9; Average sweetness score (line scale 0 to 15) ([1]; Table 19, 6% sucrose alone): 7.3; Average sweetness score (line scale 0 to 15) ([1]; Table 19, 8% sucrose alone): 8.6; Average sweetness score (line scale 0 to 15) ([1]; Table 19, 9% sucrose alone): 9.1; Average sweetness score (line scale 0 to 15) ([1]; Table 19, 10% sucrose alone): 9.7; Average sweetness score (line scale 0 to 15) ([1]; Table 20, 2% sucrose alone): 8.6; Average sweetness score (line scale 0 to 15) ([1]; Table 20, 4% sucrose alone): 9.1; Average sweetness score (line scale 0 to 15) ([1]; Table 20, 6% sucrose alone): 9.7; Average sweetness score (line scale 0 to 15) ([1]; Table 21, 6% sucrose alone): 6.5; Average sweetness score (line scale 0 to 15) ([1]; Table 21, 8% sucrose alone): 8.3; Average sweetness score (line scale 0 to 15) ([1]; Table 21, 9% sucrose alone): 9.4; Average sweetness score (line scale 0 to 15) ([1]; Table 21, 10% sucrose alone): 9.4; Average sweetness score (line scale 0 to 15) ([1]; Table 22, 6% sucrose alone): 6.5; Average sweetness score (line scale 0 to 15) ([1]; Table 22, 8% sucrose alone): 8.2; Average sweetness score (line scale 0 to 15) ([1]; Table 22, 9% sucrose alone): 9.2; Average sweetness score (line scale 0 to 15) ([1]; Table 22, 10% sucrose alone): 9.4; Average sweetness score (line scale 0 to 15) ([1]; Table 23, 6% sucrose alone): 6.8; Average sweetness score (line scale 0 to 15) ([1]; Table 23, 8% sucrose alone): 8.7; Average sweetness score (line scale 0 to 15) ([1]; Table 23, 9% sucrose alone): 9.5; Average sweetness score (line scale 0 to 15) ([1]; Table 23, 10% sucrose alone): 9.5; Average sweetness score (line scale 0 to 15) ([1]; Table 24, 6% sucrose alone): 6.5; Average sweetness score (line scale 0 to 15) ([1]; Table 24, 8% sucrose alone): 8.4; Average sweetness score (line scale 0 to 15) ([1]; Table 24, 9% sucrose alone): 9.2; Average sweetness score (line scale 0 to 15) ([1]; Table 24, 10% sucrose alone): 9.4; Average sweetness score (line scale 0 to 15) ([1]; Table 25, 6% sucrose alone): 6.7; Average sweetness score (line scale 0 to 15) ([1]; Table 25, 8% sucrose alone): 8.1; Average sweetness score (line scale 0 to 15) ([1]; Table 25, 9% sucrose alone): 9.3; Average sweetness score (line scale 0 to 15) ([1]; Table 25, 10% sucrose alone): 9.2; Average Sweetness ([1]; Table 26, 6% Sucrose alone, n = 24): 6.2; Average Sweetness ([1]; Table 26, 8% Sucrose alone, n = 24): 8.3; Average Sweetness ([1]; Table 26, 9% Sucrose alone, n = 24): 9.3; Average Sweetness ([1]; Table 26, 10% Sucrose alone, n = 24): 9.8; Average Sweetness ([1]; Table 26, 12% Sucrose alone, n = 24): 11.1; Average Sweetness ([1]; Table 27, 6% Sucrose alone, n = 30): 6.7; Average Sweetness ([1]; Table 27, 8% Sucrose alone, n = 30): 8.3; Average Sweetness ([1]; Table 27, 10% Sucrose alone, n = 30): 10.3; Average Sweetness ([1]; Table 27, 12% Sucrose alone, n = 30): 11.2; Average Sweetness ([1]; Table 30, 2% Sucrose alone, n = 30): 2.3; Average Sweetness ([1]; Table 30, 4% Sucrose alone, n = 30): 4.2; Average Sweetness ([1]; Table 30, 6% Sucrose alone, n = 30): 5.8; Average Sweetness ([1]; Table 31, 6% Sucrose alone, n = 28): 6.8; Average Sweetness ([1]; Table 31, 8% Sucrose alone, n = 28): 8.5; Average Sweetness ([1]; Table 31, 9% Sucrose alone, n = 28): 8.6; Average Sweetness ([1]; Table 31, 10% Sucrose alone, n = 28): 9.6; Average Sweetness ([1]; Table 32, 2% Sucrose alone, n = 28): 2.3; Average Sweetness ([1]; Table 32, 4% Sucrose alone, n = 28): 4.5; Average Sweetness ([1]; Table 32, 6% Sucrose alone, n = 28): 5.8
